Results as given in patent US8247444B2, “Anti-tumor effect of dimeric phthalide compound” (priority 2007, dated 2012).
Converted amounts (≈) assume the structure as drawn.

Key:
[1] = tested on: MCF-7; assay: Growth inhibition of sensitive and drug-resistant cell lines (IC50), MCF-7; type: cell-based; conditions: Homo sapiens, MCF7; MCF-7 cells
Procedure: (§1) In the following Examples, the cell lines used were H1299, H446 (human lung cancer cell line), KB (human oral cavity carcinoma cell line), NB4, HL-60 (human leukemic cell line), U251 ? U87MG (human glioblastoma cell line), MCF-7 (human breast carcinoma cell line), Bel-7402 and SMMC7721 (human hepatic cellular cancer cell line), SW620 (human colon carcinoma cell line), HDF (human dermis fibroblast), HUVEC (human umbilical vein endothelial cell line) and Kasumi-1 (human acute myeloid leukaemia cell line), all from American Type Culture Collection (ATCC).
(§2) The human lung cancer cell H1299 and H446, glioma cell U251 and U87MG, and human hepatic cellular cancer Bel-7402 cell in logarithmic growth phase were digested with pancreatic enzyme, and then suspended into DMEM or RPMI1640 containing 10% fetal bovine serum. The leukemic cells Kasumi-1 need no digestion, and were suspended into RPMI1640 containing 10% fetal bovine serum directly after centrifugalization. The cell density was adjusted to 1×10^4 cells/ml through cell counting, and the cell suspensions were seeded into a 96-well plate respectively, 100 μl/well, totally 6 groups of cells. The adherent cells were cultured overnight, the suspended cells were added different concentration gradients of dimeric phthalide compounds (S1-S6) directly, n=6 for each concentration of a single agent. The final volume was 200 ul, and the balance was supplemented with the culture medium. The plate was then incubated for 68 hours in 37° C., saturated humidity, 5% CO2 cell incubator. The medium was aspirated and 72 μl/well fresh culture medium was added. 8 μl […] (CCK-8) was added into each well and cultured for 2 hours. The absorbance was measured at 450 nm. The results were calculated as the 50% inhibiting drug concentration, i.e. IC50, using Sigmoidal simulation function by software Origin 7.0.
(§3) The cancer cells (various cell lines as shown in table 1 or FIG. 3) were seeded 1×10^3 cells per well into a 96-well plate. The suspended cells were added different concentration of dimeric phthalide compounds (S1-S6) directly, and the adherent cells were cultured overnight and added different concentration of dimeric phthalide compounds (S1-S6). The different concentration of dimeric phthalide compounds were divided into 10 groups: 0, 0.1, 0.5, 1, 5, 10, 20, 40, 80, 160 μg/ml, n=6 for each concentration.
(§4) According to the method described in Example 2, […] was detected and IC50 was calculated. The experiment was repeated for 3 times.
(§5) The growth inhibition effects of dimers of S1-S6 on its sensitive cell lines as well as the drug-resistant sub-strains (IC50 (μg/ml)) were shown in table 1 and FIG. 3.

[2] = tested on: MCF-7/Adr; assay: Growth inhibition of sensitive and drug-resistant cell lines (IC50), MCF-7/Adr; type: cell-based; conditions: Homo sapiens, NCI/ADR-RES; MCF-7/Adr drug-resistant cells
Source text: (§6) HL-60/ADR, MCF-7/ADR, K562/ADR, Bel-7402/5-FU, KBV200, SMMC-7721/Adr were respectively chemotherapeutics Adriamycin (ADR), 5-Fluorouracil (5-FU) or vincristine (VCR) drug-resistant sub-stains of HL-60, MCF-7, K562, Bel-7402, KB, SMMC-7721 cells (all from Chinese Academy of Medical Sciences). NB4-R2 was all trans-retinoic acid (ATRA) drug-resistant sub-stain (from Pathophysiology Research Department of Shanghai JiaoTong University). The main drug-resistance mechanism of K562/ADR was high expression of P-glycoprotein (P-gp), along with increased expression of Bcl-2. In addition to high expression of P-gp, the drug-resistance mechanism of MCF-7/ADR also related to the high expression of Breast Cancer Resistant Protein (BCRP). The main drug-resistance mechanism of HL-60/ADR was high expression of Multidrug Resistance Protein 1 (MRP1), along with high expression of Bcl-2, Bcl-xL. […] The main drug-resistance mechanism of KBV200 was high expression of P-gp and its increased activity. The drug-resistance mechanism of NB4-R2 on ATRA was mutation in the RAR gene locus.
as §2, §3, §4, §5

[3] = tested on: Bel-7402; assay: Vascular endothelial cell inhibition assay (CCK-8), Bel-7402; type: cell-based; conditions: Homo sapiens, 72 h, CCK-8, Table 2
Procedure: (§7) 2×10^3 cells were seeded into a 96-well plate and cultured for 24 h. S1-S6 of different concentrations (0, 0.01, 0.1, 0.5, 1, 2.5, 5, 10, 20, 40, 80, 160 μg/ml, respectively) were added and incubated for 72 h, n=6 for each concentration. The inhibition of cell proliferation was detected by CCK-8 assay, the results were calculated as IC50, as describe in Example 3.

[4] = tested on: SMMC-7721/Adr; assay: Growth inhibition of sensitive and drug-resistant cell lines (IC50), SMMC-7721/Adr; type: cell-based; conditions: Homo sapiens; SMMC-7721/Adr drug-resistant cells
Source text: as §6, §2, §3, §4, §5

[5] = tested on: Bel-7402/5-Fu; assay: Growth inhibition of sensitive and drug-resistant cell lines (IC50), Bel-7402/5-Fu; type: cell-based; conditions: Homo sapiens, Bel7402/5-FU; Bel-7402/5-Fu drug-resistant cells
Source text: as §6, §2, §3, §4, §5

[6] = tested on: KBv200; assay: Growth inhibition of sensitive and drug-resistant cell lines (IC50), KBv200; type: cell-based; conditions: Homo sapiens; KBv200 drug-resistant cells
Source text: as §6, §2, §3, §4, §5

[7] = tested on: secretion of VEGF in H1299 cell; assay: VEGF in supernatant of tumor cell H1299 culture (VEGF-ELISA); type: cell-based, human; conditions: H1299, compound 5 μg/ml, 24 h; for inhibition at 5 µg/mL: Homo sapiens, NCI-H1299, read-out: Inhibition rate of VEGF secretion
Procedure: Assay of vascular endothelial cell growth factor (VEGF) in supernatant of tumor cell H1299 culture. The cell was seeded into a 24-well plate (n=3 for each sample). H1299 cell was treated with S1-S6 respectively and cultured for 24 h. The culture supernatants from each group were collected and operated according to the instruction of VEGF-ELISA kit (JIN MEI Corporation). The samples were added, incubated, washed and detected at 450 nm for OD values of each sample. The standard curve was obtained by using different dose of VEGF standards and the secretory volume of VEGF in the supernatant was calculated.

[8] = tested on: HUVEC; assay: Vascular endothelial cell inhibition assay (CCK-8), HUVEC; type: cell-based; conditions: Homo sapiens, 72 h
Procedure: as §7

[9] = tested on: SMMC-7721; assay: Growth inhibition of sensitive and drug-resistant cell lines (IC50), SMMC-7721; type: cell-based; conditions: Homo sapiens; SMMC-7721 cells
Procedure: as §1, §2, §3, §4, §5

[10] = tested on: Bel-7402; assay: Growth inhibition of sensitive and drug-resistant cell lines (IC50), Bel-7402; type: cell-based; conditions: Homo sapiens; Bel-7402 cells, Table 1
Procedure: as §1, §2, §3, §4, §5

[11] = tested on: KB; assay: Growth inhibition of sensitive and drug-resistant cell lines (IC50), KB; type: cell-based; conditions: Homo sapiens; KB cells, Table 1
Procedure: as §1, §2, §3, §4, §5

[12] = tested on: KB; assay: Vascular endothelial cell inhibition assay (CCK-8), KB; type: cell-based; conditions: Homo sapiens, 72 h, CCK-8, Table 2
Procedure: as §7

[13] = tested on: K562/Adr; assay: Growth inhibition of sensitive and drug-resistant cell lines (IC50), K562/Adr; type: cell-based; conditions: Homo sapiens; K562/Adr drug-resistant cells
Source text: as §6, §2, §3, §4, §5

[14] = tested on: K562; assay: Growth inhibition of sensitive and drug-resistant cell lines (IC50), K562; type: cell-based; conditions: Homo sapiens; K562 cells
Procedure: as §2, §3, §4, §5

[15] = tested on: HDF; assay: Vascular endothelial cell inhibition assay (CCK-8), HDF; type: cell-based; conditions: Homo sapiens, 72 h
Procedure: as §7

[16] = tested on: U87MG, H1299 and HL-60 heterograft tumors; assay: Inhibition of the growth of nude mouse heterograft tumors; type: in vivo, Balb/c male nude mice; conditions: FIG. 9; for tumor inhibition effect: intraperitoneal, S4 25 mg/kg, S6 30 mg/kg, S1 32 mg/kg, BP 250 mg/kg, 4 weeks
Procedure: Experimental grouping: Balb/c male nude mice were used, each weighted 18-22 g, and three assays were performed. The mice were seeded with U87MG, H1299 and HL-60 respectively. The animals were divided into three groups for each experiment, one as control, one was administered with the dimeric phthalide compounds, and one was administered with monomers of phthalide compound, 6 animals for each group.
For the group which was administered with monomers of phthalide compound, we used n-butylidenephthalide (BP) (Sigma) as active ingredient for tumor suppression, the compound had the structure as follows:
Experimental Process The H1299, HL-60 or U87MG cells growing in logarithmic phase were used. […] When the tumors had gown into 0.1-0.5 cm^3 (about 7-10 days), the animals were intraperitoneal injected with the dimeric phthalide compound S4 (25 mg/kg), S6 (30 mg/kg), S1 (32 mg/kg), each 200 μl; for the group of monomers of phthalide compound, the mice were intraperitoneal injected with n-butylidenephthalide (250 mg/kg); the control group was administered with equal volume of vehicle. The animals were sacrificed after 4 weeks, and the subcutaneous tumors were separated. Photographs were taken (FIG. 9A) and the tumors were weighted (FIG. 9B).

[17] = tested on: drug-resistant cells of different mechanisms and sensitive cells; assay: Overcome drug resistance: efficacy on drug-resistant cells compared with sensitive cells; type: cell-based, human; conditions: table 1 and FIG. 3
Procedure: as §3, §4

Row | SMILES | IC50 [1] [µg/mL] | IC50 [2] [µg/mL] | IC50 [3] [µg/mL] | IC50 [4] [µg/mL] | IC50 [5] [µg/mL] | IC50 [6] [µg/mL] | Supernatant VEGF [7] [ng/ml/10^6 cells] | inhibition at 5 µg/mL [7] [%] | IC50 [8] [µg/mL] | IC50 [9] [µg/mL] | IC50 [10] [µg/mL] | IC50 [11] [µg/mL] | IC50 [12] [µg/mL] | IC50 [13] [µg/mL] | IC50 [14] [µg/mL] | IC50 [15] [µg/mL] | dose needed to reach similar effects compared with the dimeric phthalide compound [16] [folds] | tumor inhibition effect [16] | efficacy on drug-resistant cells compared with sensitive cells [17]
1 | CCC/C=C1\OC(=O)C2=C1CCC1[C@H]2C23C=CCC[C@@H]2C1(C(=O)CCC)OC3=O (single isomer, unassigned) [S3] | 32.1 ± 3.21 (≈ 81 µM) | 34 ± 3.06 (≈ 85.7 µM) | 44.3 (≈ 112 µM) | 26.7 ± 2.6 (≈ 67.3 µM) | 29.3 ± 2.3 (≈ 74 µM) | 20.4 ± 2.6 (≈ 51.6 µM) | 268.7 ± 36.13 | 28 | 5.99 (≈ 15.1 µM) | 25.4 ± 2 (≈ 64.1 µM) | 28.1 ± 3.96 (≈ 70.9 µM) | 19 ± 1.91 (≈ 48 µM) | 18.9 (≈ 47.7 µM) | 19.2 ± 1.71 (≈ 48.3 µM) | 17.4 ± 2.06 (≈ 44 µM) | 98.7 (≈ 249 µM) | – | – | –
2 | CCC/C=C1\OC(=O)c2ccccc21 [BP, n-butylidenephthalide, reference compound] | – | – | – | – | – | – | – | – | – | – | – | – | – | – | – | – | ≥ 10 | some inhibition effects | –
3 | CCC/C=C1\OC(=O)C2=C1CCC1C2C2(OC(=O)c3ccccc32)[C@@H]1CCC (some centres unmarked) [S2] | 25.6 ± 2.01 (≈ 67.7 µM) | 29.4 ± 2.8 (≈ 77.8 µM) | 25.6 (≈ 67.7 µM) | 38.3 ± 1.87 (≈ 101 µM) | 29.7 ± 1.99 (≈ 78.4 µM) | 16.4 ± 1.98 (≈ 43.2 µM) | 245.71 ± 34.27 | 34.2 | 4.76 (≈ 12.6 µM) | 37.9 ± 2 (≈ 100 µM) | 27.9 ± 2.54 (≈ 73.6 µM) | 15.8 ± 1.25 (≈ 41.7 µM) | 37.8 (≈ 99.9 µM) | 20.4 ± 1.53 (≈ 54 µM) | 18.4 ± 1.02 (≈ 48.7 µM) | 83.2 (≈ 220 µM) | – | – | –
4 | CCC/C=C1\OC(=O)C2=CC3CC[C@]21C1C2=C(CC[C@@H]31)C(CCCC)OC2=O (some centres unmarked) [S5] | 28.5 ± 1.91 (≈ 74.6 µM) | 29.2 ± 2.14 (≈ 76.4 µM) | 29.7 (≈ 77.6 µM) | 35.2 ± 2.33 (≈ 92.1 µM) | 28.1 ± 4.02 (≈ 73.4 µM) | 19.8 ± 1.05 (≈ 51.8 µM) | 236.32 ± 24.02 | 36.7 | 4.04 (≈ 10.6 µM) | 36 ± 3.92 (≈ 94.2 µM) | 30.2 ± 2.17 (≈ 79 µM) | 16.4 ± 2.05 (≈ 42.9 µM) | 36 (≈ 94.1 µM) | 18.3 ± 0.762 (≈ 47.9 µM) | 18.4 ± 0.87 (≈ 48.2 µM) | 75.8 (≈ 198 µM) | – | – | –
5 | CCC/C=C1\OC(=O)C2=C1CCC1C2C2(OC(=O)C3=C2CCC=C3)C1(C)CCC (centres unmarked) [S6] | 22.4 ± 2.03 (≈ 56.9 µM) | 24.5 ± 2.09 (≈ 62.1 µM) | 30 (≈ 76.1 µM) | 23 ± 2.76 (≈ 58.2 µM) | 24 ± 2.66 (≈ 60.8 µM) | 12.2 ± 2.15 (≈ 31 µM) | 237.25 ± 22.38 | 36.4 | 4.27 (≈ 10.8 µM) | 24 ± 1.87 (≈ 60.8 µM) | 22.6 ± 3.01 (≈ 57.3 µM) | 13 ± 2.5 (≈ 32.9 µM) | 26.3 (≈ 66.6 µM) | 11.8 ± 0.995 (≈ 29.9 µM) | 10.3 ± 0.597 (≈ 26.2 µM) | 136 (≈ 344 µM) | – | significant tumor inhibition effects | the best effect
